Literature values, collected in patent US7074797B2, “Pyrazolopyrimidines as CRF receptor antagonists” (Neurocrine Biosciences, Inc., priority 1996, dated 2006).
No end group written: not given here.

Legend:
Rats [1] = settings: central administration
Rats [2] = settings: ICV, animals previously familiarized with the apparatus, fifteen minute session

## CRF: corticotropin-releasing factor, a 41-amino acid peptide (SEEPPISLDLTFHLLREVLEMARAEQLAQQAHSNRKLMEII-NH2; ends and bridges not checked; UniProt P06850 154-194, looked up)
Rats [1]
  exploration in the elevated plus maze: suppresses exploration
Rats [2]
  latency to emerge from the small chamber: increases
  mean time spent in the chamber: increases
